Type in all cases: cell-based, Enterovirus 71
Experiment [1] concerns EV71 clinical isolate (EV71 FY 573). Put plainly: EV71 TCID50 (CPE, crystal violet) in RD cells. How it is done:
EV71 (clinical isolate EV71 FY 573) in 10-fold serial dilutions was used to infect RD cells at different E02 concentrations. After 3-4 days of incubation, CPE (cytopathic effect) was observed under optical microscope and stained with crystal violet to calculate 50% tissue culture infective dose. Procedures are detailed as follows:
(1) Cell seeding: 24 h prior to infection, RD cells were seeded in 96-well cell culture plates, 5×10^4 cells per well.
(2) Infection: • a. Virus pre-incubated with drug: virus stock solution was in 10-fold serial dilution with DMEM and dispensed to 96-well plates at 100 μl per well, and 11 μl of E02 dissolved in DMEM at corresponding concentration was added, and incubated at 37° C. for 1 h; • b. Cells pre-incubated with drug: cell culture medium was removed from 96-well plates, each well was added 100 μl DMEM, then added 11 μl of E02 solution at corresponding concentration, and incubated at 37° C. for 1 h; • c. After 1 h incubation, drug was discarded from cell culture plates, 111 μl of virus pre-incubated with drug was transferred to cell culture plates, and incubated at 37° C. for 1 h; • d. […]
(3) After cultured for 3-4 days, CPE was observed under optical microscope, and stained with crystal violet, TCID50 was calculated using Reed-Muench method.

Experiment [2] has as its system EV71 clinical isolate EV71 FY573. As to the kind of experiment: Time of E02 addition assay, EV71 in RD cells. The conditions noted are these: 32 μM of E02, MOI 10, 18 h. How it is done: RD cells in 96-well plates were infected with MOI 10 EV71 clinical isolate EV71 FY573. In three periods at prior to, during, and post infection, 32 μM of E02 (dissolved in DMEM) or DMEM were added, EV71 replication was measured to determine the stage, in which E02 inhibits EV71 infection. Steps are detailed as follows:
(1) Cell seeding: 24 h prior to infection, RD cells were seeded in 96-well cell culture plates, 5×10^4 cells per well;
(2) Cells pre-incubated with drug: cell culture medium was removed from 96-well plates, each well was added 100 μl of DMEM, and then added 11 μl of 320 μM E02 solution (cell group treated with drug) or 11 μl of DMEM (cell group without drug treatment), incubated at 37° C. for 1 h.
(3) Virus pre-incubated with drug: virus stock solution was diluted to 5×10^6 TCID50/ml with DMEM, dispensed to 96-well plates at 100 μl per well, and 11 μl of 320 μM E02 solution (B and C groups) or 11 μl of DMEM (A and F groups) were added, and incubated at 37° C. for 1 h.
(4) Infection: After cells and virus were incubated for one hour, drug was discarded from cell culture plates. 111 μl of pre-incubated virus with drug (B and C groups) or DMEM (A and F groups) was transferred to cell culture plates. After 100 μl of virus solution was transferred to D and E groups, 11 μl of 320 μM E02 was added, and incubated at 37° C. for 1 h.
(5) One hour after viral infection of cells, virus and drug mixture was discarded from cell culture plates. Cells were washed twice with 50 μl of DMEM. 180 μl per well of DMEM containing 2% FBS, 20 μl of 320 μM E02 solution (B, E, and F groups) or 20 μl of DMEM (A, C, and D groups) were added. […]
(7) Viral load determination: EV71 5′UTR gene was detected using ABI Taqman one-step RT-PCR kit (ABI taqMan® One-Step RT-PCR, Cat #4309169) in ABI 7900HT 384-well plates PCR system. […]
(8) PCR standard curves were used to convert CT values of PCR to viral load (standard curves were obtained by CT values determined by performing RT-PCR on RNA extracted from viruses with defined titers at 10-fold serial dilutions). […]

In experiment [3] the test system is EV71 clinical isolate SH-RS. As to the kind of experiment: EV71 SH-RS PFU in RD cells. Conditions: Enterovirus A, 168 h, 5~7 days, read-out: EC50 to reduce EV71 SH-RS PFU in RD cells. How it is done: RD cells cultured in 12-well plates were infected with EV71 SH-TS or SH-RS at different E02 concentrations. After cultured for 5˜7 days, cells were stained and plaque-forming units were calculated. Same procedure is as detailed in “3. E02 reduces EV71 plaque forming units in RD cells” of Example 1.

Experiment [4] relates to EV71 M.A.V. (mouse-adapted strain). Put plainly: EV71 M.A.V. PFU in RD cells. Conditions: Enterovirus A, read-out: EC50 to reduce EV71 M.A.V. PFU in RD cells. How it is done:
EV71 M.A.V. was used to infect RD cells cultured in 12-well plates at different E02 concentrations. After cultured for 5 to 7 days, stained and plaque-forming units were calculated. Detailed procedures were the same as the corresponding PFU testing method of Example 1.

Experiment [5] relates to EV71 clinical isolate SH-RS. As to the kind of experiment: EV71 SH-RS replication in RD cells, quantitative RT-PCR. Conditions: MOI 0.1, 46 h. The method, then:
RD cells were infected with EV71 SH-TS or SH-RS at different E02 concentrations, at the MOI of 0.1. After cultured for 46 h, viral RNA in culture supernatant was extracted. Relative EV71 viral load was determined by quantitative RT-PCR. See Example 1 for specific procedures of quantitative RT-PCR.

SMILES strings stand for the structures.

For the compound `Cc1ccc(C(=O)Nc2ccc(S(=O)(=O)O)c3cc(S(=O)(=O)O)cc(S(=O)(=O)O)c23)cc1NC(=O)c1cccc(NC(=O)Nc2cccc(C(=O)Nc3cc(C(=O)Nc4ccc(S(=O)(=O)O)c5cc(S(=O)(=O)O)cc(S(=O)(=O)O)c45)ccc3C)c2)c1` [E02, Suramin Sodium], in experiment [1] (10 μM of E02), the “inhibition of EV71 clinical isolate infection of RD cells” value was “completely inhibit”. In addition, the EC50 – broadly, the concentration needed to bring the measured effect to its halfway point – in experiment [1] (Enterovirus A, RD, EV71 FY 573, 3-4 days, read-out: EC50 to reduce EV71 TCID50 in RD cells) was 4.7 µM. In experiment [2], the “inhibition of EV71 infection, E02 added after infection (F)” value is given as “could not inhibit EV71 infection”; the “inhibition of EV71 infection, E02 added during infection (D, E)” value is recorded as “can inhibit EV71 infection”; the “inhibition of EV71 infection, E02 added prior to infection (B, C)” value is “can inhibit EV71 infection”. Further, the EC50 in experiment [3] is 3.47 µM. For the same compound, the EC50 in experiment [4] was 2 µM. For the same compound, in experiment [5], the “concentration reducing EV71 replication by 10-fold” value is recorded as 4.41 μM and the “concentration reducing EV71 replication by 1000-fold” value is 16.29 µM.
